System: Melanoderm tissue equivalent model MEL-300 containing melanocytes obtained from dark skin individuals
Assay: Melanoderm tissue equivalent model MEL-300, total melanin content (inhibition of melanogenesis)
Format: cell-based
Conditions: Melanocyte, 336 h; 10 μM in maintenance medium, 14 days, total melanin content vs DMSO vehicle control; read-out: Melanoderm (% Reduction at 10 μM)
Protocol: Melanoderm tissue equivalent model MEL-300 (MatTek: Ashland, Mass.) containing melanocytes obtained from dark skin individuals were cultured as per supplier instructions. Components were added to the maintenance medium phase (no topical treatments) at a final concentration of 10 μM for 14 days at which time the experiment was terminated and the tissues assessed for melanin content. Medium and treatments were changed three times per week. DMSO was utilized as the vehicle control and all treatments were performed at least in duplicate.
For quantification of total melanin, each Melanoderm was placed into an individual Eppendorf tube (2 mL) into which 250 μL of Solvable™ tissue solubilizer (Packard Bioscience Co., Cat #6NE9100) was added. Each tube was vortexed and incubated at 60° C. for 18 hours. Each sample was then centrifuged (5-minutes at 13,000 RPMs) to remove any particulates. 100 or 200 μL of supernatant were transferred to a 96 well microtiter plate and the absorbance read at 490 nm. Total melanin content was calculated from a standard curve using synthetic melanin (Sigma Cat #M8631). Data was analyzed for significance using the t-test in Microsoft Excel to generate p-values (p-values less than 0.01 represent 99% confidence, p values of 0.05 represent 95% confidence both of which are statistically significant).

| SMILES | inhibition at 10 µM [%] |
| --- | --- |
| COc1ccc(CNCCc2ccccc2)cc1OC [Compound 3a, N-(3,4-dimethoxybenzyl)-2-phenylethanamine] | 40.3 |
| COc1ccc(CNCCc2ccccc2)cc1 [Compound 3b, N-(4-methoxybenzyl)-2-phenylethanamine] | 54.4 |
| c1ccc(CCNCc2cccc(Oc3ccccc3)c2)cc1 [Compound 3c, N-(3-phenoxybenzyl)-2-phenylethanamine] | 68.9 |
| COc1ccc(OC)c(CNCCc2ccccc2)c1 [Compound 3d, N-(2,5-dimethoxybenzyl)-2-phenylethanamine] | 60.3 |
| Cc1ccc(CNCCc2ccccc2)cc1C [Compound 3e, N-(3,4-dimethylbenzyl)-2-phenylethanamine] | 64.5 |
| c1ccc(CCNCC2CCCCC2)cc1 [Compound 3f, N-(cyclohexylmethyl)-2-phenylethanamine] | 69.5 |
| COc1cc(CNCCc2ccccc2)cc(OC)c1 [Compound 3g, N-(3,5-dimethoxybenzyl)-2-phenylethanamine] | 51.6 |
| COc1ccc(CCNCCc2ccccc2)cc1OC [Compound 3h, 2-(3,4-dimethoxyphenyl)-N-phenethylethanamine] | 53.1 |
| COc1ccc(CN(C)CCc2ccccc2)cc1OC [Compound 7, N-(3,4-dimethoxybenzyl)-N-methyl-2-phenylethanamine] | 44.4 |
| COc1ccc(CNCCC(C)C)cc1OC [Compound 9, N-(3,4-dimethoxybenzyl)-3-methylbutan-1-amine] | 1.9 |
